Where a name gives a salt, the structure may show the parent alone.
Test system: peri-menopausal women experiencing at least 40-50 hot flushes per week
Method: A clinical study is conducted with 12 peri-menopausal women experiencing at least 40-50 hot flushes per week.
The study is designed as a so called double blind, cross-over study. During the study the medication is orally administered once a day. The visual aspects of the medication used is always the same, i.e. these aspects offer no clues as to the nature of the medication. The volunteers are asked to record the number of hot flushes they experience in a dairy (at least 1 entry per day).
During an initial period of 56 days (days 1-56), all 12 participants receive the same medication, i.e. 20 mg Fluoxetine HCl. Subsequently, the twelve women are randomly divided into two groups, i.e. group A with six women and group B with six women.

For `CNCCC(Oc1ccc(C(F)(F)F)cc1)c1ccccc1` (stereo not drawn) [Fluoxetine HCl], the “number of hot flushes experienced per day” value (all 12 participants, 20 mg Fluoxetine HCl orally once a day, days 1-56) was “decreases substantially over time”, the “number of hot flushes” value (group A, 5mg Fluoxetine HCl + placebo orally once a day, days 169-281 (after the combination with vitamin B6)) was “increases again over time” and the “daily number of hot flushes experienced” value (group B, 5mg Fluoxetine HCl + placebo orally once a day, days 57-168 (after 20 mg Fluoxetine HCl)) was “increases over time”.

Reference: patent EP1266659A1, “Pyridoxal in combination with serotonin re-uptake inhibitor for the treatment of hot flushes” (Pantarhei Bioscience B.V., priority 2001, dated 2002)
